Experimental data as given in PubChem BioAssay (NCI).
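Compound exposure: 48 hours, 5 concentrations, 96-well plates. TGI: concentration producing complete growth inhibition.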

Legend:
Assay in all cases: inhibition of tumour cell growth, NCI panel, 48 h
786-0 renal = system: 786-0 renal
A498 renal = system: A498 renal
A549 NSCLC = system: A549 NSCLC
ACHN renal = system: ACHN renal
CAKI-1 renal = system: CAKI-1 renal
COLO 205 colon = system: COLO 205 colon
DLD-1 colon = system: DLD-1 colon
DMS 114 small cell lung = system: DMS 114 small cell lung
DMS 273 small cell lung = system: DMS 273 small cell lung
EKVX NSCLC = system: EKVX NSCLC
HCT-116 colon = system: HCT-116 colon
HCT-15 colon = system: HCT-15 colon
HOP-18 NSCLC = system: HOP-18 NSCLC
HOP-62 NSCLC = system: HOP-62 NSCLC
HOP-92 NSCLC = system: HOP-92 NSCLC
HT29 colon = system: HT29 colon
IGROV1 ovarian = system: IGROV1 ovarian
K-562 leukemia = system: K-562 leukemia
KM12 colon = system: KM12 colon
KM20L2 colon = system: KM20L2 colon
LOX IMVI melanoma = system: LOX IMVI melanoma
LXFL 529 NSCLC = system: LXFL 529 NSCLC
M14 melanoma = system: M14 melanoma
M19-MEL melanoma = system: M19-MEL melanoma
MALME-3M melanoma = system: MALME-3M melanoma
MOLT-4 leukemia = system: MOLT-4 leukemia
NCI-H226 lung = system: NCI-H226 lung
NCI-H23 lung = system: NCI-H23 lung
NCI-H460 lung = system: NCI-H460 lung
NCI-H522 lung = system: NCI-H522 lung
OVCAR-3 ovarian = system: OVCAR-3 ovarian
OVCAR-4 ovarian = system: OVCAR-4 ovarian
OVCAR-5 ovarian = system: OVCAR-5 ovarian
OVCAR-8 ovarian = system: OVCAR-8 ovarian
RPMI-8226 leukemia = system: RPMI-8226 leukemia
RXF 393 renal = system: RXF 393 renal
RXF-631 renal = system: RXF-631 renal
SF-268 CNS = system: SF-268 CNS
SF-295 CNS = system: SF-295 CNS
SF-539 CNS = system: SF-539 CNS
SK-MEL-2 melanoma = system: SK-MEL-2 melanoma
SK-MEL-28 melanoma = system: SK-MEL-28 melanoma
SK-MEL-5 melanoma = system: SK-MEL-5 melanoma
SK-OV-3 ovarian = system: SK-OV-3 ovarian
SN12C renal = system: SN12C renal
SNB-19 CNS = system: SNB-19 CNS
SNB-75 CNS = system: SNB-75 CNS
SNB-78 CNS = system: SNB-78 CNS
SW-620 colon = system: SW-620 colon
TK-10 renal = system: TK-10 renal
U251 CNS = system: U251 CNS
UACC-257 melanoma = system: UACC-257 melanoma
UACC-62 melanoma = system: UACC-62 melanoma
UO-31 renal = system: UO-31 renal
XF 498 CNS = system: XF 498 CNS
CCRF-CEM leukemia = system: CCRF-CEM leukemia
HCC-2998 colon = system: HCC-2998 colon
HL-60(TB) leukemia = system: HL-60(TB) leukemia
SR leukemia = system: SR leukemia

In the case of N#Cc1c([N+](=O)[O-])cc(C(F)(F)F)cc1[N+](=O)[O-], the TGI (786-0 renal) is reported as 12.7 µM, the TGI (A498 renal) is reported as 32.9 µM and the TGI (A549 NSCLC) is reported as 37.6 µM. It also gave a TGI (ACHN renal) of 20 µM, a TGI (CAKI-1 renal) of 8.94 µM and a TGI (COLO 205 colon) of 14.8 µM. It also gave a TGI (DLD-1 colon) of 16.7 µM, a TGI (DMS 114 small cell lung) of 3.93 µM and a TGI (DMS 273 small cell lung) of 16.8 µM. For the same compound, the TGI (EKVX NSCLC) was 32.9 µM, the TGI (HCT-116 colon) was 20 µM and the TGI (HCT-15 colon) was 24.9 µM. For the same compound, the TGI (HOP-18 NSCLC) was 23.9 µM, the TGI (HOP-62 NSCLC) was 32.8 µM and the TGI (HOP-92 NSCLC) was 4.01 µM. It also gave a TGI (HT29 colon) of 9.36 µM, a TGI (IGROV1 ovarian) of 20.8 µM and a TGI (K-562 leukemia) of 5.08 µM. It also gave a TGI (KM12 colon) of 12.4 µM, a TGI (KM20L2 colon) of 44.2 µM and a TGI (LOX IMVI melanoma) of 6.87 µM. For the same compound, the TGI (LXFL 529 NSCLC) was 4.42 µM, the TGI (M14 melanoma) was 17.1 µM and the TGI (M19-MEL melanoma) was 5.27 µM. For the same compound, the TGI (MALME-3M melanoma) was 25.5 µM, the TGI (MOLT-4 leukemia) was 4.95 µM and the TGI (NCI-H226 lung) was 37.3 µM. It also gave a TGI (NCI-H23 lung) of 19.2 µM, a TGI (NCI-H460 lung) of 40.3 µM and a TGI (NCI-H522 lung) of 1.24 µM. The TGI (OVCAR-3 ovarian) was 30.9 µM, the TGI (OVCAR-4 ovarian) was 5.57 µM and the TGI (OVCAR-5 ovarian) was 32.5 µM. It also gave a TGI (OVCAR-8 ovarian) of 4.36 µM, a TGI (RPMI-8226 leukemia) of 6.28 µM and a TGI (RXF 393 renal) of 6.62 µM. It also gave a TGI (RXF-631 renal) of 27.3 µM, a TGI (SF-268 CNS) of 27.3 µM and a TGI (SF-295 CNS) of 10.3 µM. It also gave a TGI (SF-539 CNS) of 11 µM, a TGI (SK-MEL-2 melanoma) of 39.3 µM and a TGI (SK-MEL-28 melanoma) of 21.2 µM. It also gave a TGI (SK-MEL-5 melanoma) of 23.8 µM, a TGI (SK-OV-3 ovarian) of 33.2 µM and a TGI (SN12C renal) of 27.3 µM. For the same compound, the TGI (SNB-19 CNS) was 32.4 µM, the TGI (SNB-75 CNS) was 20.1 µM and the TGI (SNB-78 CNS) was 4.15 µM. The TGI (SW-620 colon) was 8.77 µM, the TGI (TK-10 renal) was 18.1 µM and the TGI (U251 CNS) was 33.7 µM. For the same compound, the TGI (UACC-257 melanoma) was 19.2 µM, the TGI (UACC-62 melanoma) was 12.2 µM and the TGI (UO-31 renal) was 33.5 µM. The TGI (XF 498 CNS) was 3.54 µM.

Cc1c(C(=O)/C=C/c2ccco2)[n+](=O)c2ccccc2n1[O-] gave a TGI (786-0 renal) of over 100 µM, a TGI (A498 renal) of over 100 µM and a TGI (A549 NSCLC) of over 100 µM. The TGI (ACHN renal) was over 100 µM, the TGI (CAKI-1 renal) was over 100 µM and the TGI (CCRF-CEM leukemia) was over 100 µM. The TGI (COLO 205 colon) was over 100 µM, the TGI (DLD-1 colon) was over 100 µM and the TGI (DMS 114 small cell lung) was over 100 µM. It also gave a TGI (DMS 273 small cell lung) of over 100 µM, a TGI (EKVX NSCLC) of over 100 µM and a TGI (HCC-2998 colon) of over 100 µM. For the same compound, the TGI (HCT-116 colon) was over 100 µM, the TGI (HL-60(TB) leukemia) was over 100 µM and the TGI (HOP-18 NSCLC) was over 100 µM. The TGI (HOP-92 NSCLC) was over 100 µM, the TGI (HT29 colon) was over 100 µM and the TGI (IGROV1 ovarian) was over 100 µM. The TGI (K-562 leukemia) was over 100 µM, the TGI (KM12 colon) was over 100 µM and the TGI (KM20L2 colon) was over 100 µM. It also gave a TGI (LOX IMVI melanoma) of over 100 µM, a TGI (LXFL 529 NSCLC) of over 100 µM and a TGI (M14 melanoma) of over 100 µM. The TGI (M19-MEL melanoma) was over 100 µM, the TGI (MALME-3M melanoma) was over 100 µM and the TGI (MOLT-4 leukemia) was over 100 µM. It also gave a TGI (NCI-H226 lung) of over 100 µM, a TGI (NCI-H23 lung) of over 100 µM and a TGI (NCI-H460 lung) of over 100 µM. For the same compound, the TGI (NCI-H522 lung) was over 100 µM, the TGI (OVCAR-3 ovarian) was over 100 µM and the TGI (OVCAR-5 ovarian) was over 100 µM. The TGI (OVCAR-8 ovarian) was over 100 µM, the TGI (RPMI-8226 leukemia) was over 100 µM and the TGI (RXF 393 renal) was over 100 µM. For the same compound, the TGI (RXF-631 renal) was over 100 µM, the TGI (SF-268 CNS) was over 100 µM and the TGI (SF-295 CNS) was over 100 µM. The TGI (SF-539 CNS) was over 100 µM, the TGI (SK-MEL-28 melanoma) was over 100 µM and the TGI (SK-OV-3 ovarian) was over 100 µM. It also gave a TGI (SN12C renal) of over 100 µM, a TGI (SNB-19 CNS) of over 100 µM and a TGI (SNB-75 CNS) of over 100 µM. For the same compound, the TGI (SNB-78 CNS) was over 100 µM, the TGI (SR leukemia) was over 100 µM and the TGI (SW-620 colon) was over 100 µM. The TGI (TK-10 renal) was over 100 µM, the TGI (UACC-257 melanoma) was over 100 µM and the TGI (UACC-62 melanoma) was over 100 µM. The TGI (UO-31 renal) was over 100 µM and the TGI (XF 498 CNS) was over 100 µM.
